According to EP3693362B1, “PARASITIC PLANT GERMINATION REGULATOR” (National University Corporation Tokai National Higher …, priority 2017, dated 2019):
pIC50: −log10 of the molar value.

How the values were obtained:
Test in all cases: Affinity for strigolactone receptor, YLG probe competition (fluorescence)
Type in all cases: binding
Conditions in all cases: competition with YLG, test range 0.01 to 10 µM, pH 7.0, read-out: IC50 values of test compounds
HTL11 = biological target: T1, HTL11 (Striga hermonthica, UniProt A0A0M4AS18)
T1 sequence (A0A0M4AS18 1-268): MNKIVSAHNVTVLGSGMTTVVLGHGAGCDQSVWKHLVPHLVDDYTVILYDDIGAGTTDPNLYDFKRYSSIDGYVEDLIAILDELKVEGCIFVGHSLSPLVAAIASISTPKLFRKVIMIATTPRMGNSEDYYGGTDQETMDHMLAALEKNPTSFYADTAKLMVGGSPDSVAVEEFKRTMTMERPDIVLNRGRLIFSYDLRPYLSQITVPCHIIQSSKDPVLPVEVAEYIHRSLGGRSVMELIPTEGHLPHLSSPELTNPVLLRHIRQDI
Method: (§1) PTL 1 reports that the affinity of a test compound for the strigolactone receptor can be evaluated by reacting strigolactone with a probe for evaluation of affinity for a strigolactone receptor (e.g., YLG) in the presence of the test compound, and measuring the fluorescence emitted from the decomposition product of YLG. Therefore, the compounds synthesized in Example 1 were used as the test compounds, and the affinity for the strigolactone receptor was evaluated by a similar method to the above. The details are as follows.
(§2) An Arabidopsis thaliana strigolactone receptor (AtD14) was produced in accordance with a usual method. More specifically, cDNA of the receptor was obtained by RT-PCR, and expression and purification were carried out in E. coli. Additionally, Striga strigolactone receptors were produced by the method disclosed in PTL 1 (ShHTL1: amino acid SEQ ID NO: 1, ShHTL2: amino acid SEQ ID NO: 2, ShHTL3: amino acid SEQ ID NO: 3, ShHTL4: amino acid SEQ ID NO: 4, ShHTL5: amino acid SEQ ID NO: 5, ShHTLS: amino acid SEQ ID NO: 6, ShHTL7: amino acid SEQ ID NO: 7, ShHTLS: amino acid SEQ ID NO: 8, ShHTL9: amino acid SEQ ID NO: 9, ShHTL10: amino acid SEQ ID NO: 10, and ShHTL11: amino acid SEQ ID NO: 11.)
(§3) One hundred microliters of a reaction solution containing each of the obtained strigolactone receptors ([…]), YLG (final concentration: […]), and each of the test compounds (final concentration: 0.01 to 10 µM) or the control compound (5-deoxystrigol, final concentration: 0.01 to 10 µM) as a competitive compound (100 mM HEPES, 150 mM NaCl, pH: 7.0, 0.1% DMSO) was prepared and reacted in a 96 black-well plate (Greiner). Sixty after the initiation of the reaction, fluorescence was detected at an excitation wavelength of 480 nm and a detection wavelength of 520 nm using a fluorescence detector (SpectraMax i3, manufactured by Molecular Devices), and the fluorescence intensity was measured. Based on the measurement results of fluorescence intensity, a Lineweaver-Burk plot was created to calculate the Km values, and the IC50 values of each of the test compounds and the control compound, which are competitive compounds.
(§4) In Table 7, HTL1 to HTL11 refer to strigolactone receptors (SEQ ID NOs: 1 to 11), and AtD14 refer to the Arabidopsis thaliana strigolactone receptor.

HTL10 = biological target: T2, HTL10 (Striga hermonthica, UniProt A0A0M4AH20)
T2 sequence (A0A0M4AH20 1-268): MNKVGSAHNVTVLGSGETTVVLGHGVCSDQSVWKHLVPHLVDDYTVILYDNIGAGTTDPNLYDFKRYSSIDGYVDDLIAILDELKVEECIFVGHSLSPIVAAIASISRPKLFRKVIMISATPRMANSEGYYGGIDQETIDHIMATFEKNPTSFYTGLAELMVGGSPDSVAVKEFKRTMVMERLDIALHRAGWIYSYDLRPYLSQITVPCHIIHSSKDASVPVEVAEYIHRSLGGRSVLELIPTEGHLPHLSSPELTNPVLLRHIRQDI
Method: as §1, §2, §3, §4

HTL2 = biological target: T3, HTL2 (Striga hermonthica, UniProt A0A0M4AMP1)
T3 sequence (A0A0M4AMP1 1-285): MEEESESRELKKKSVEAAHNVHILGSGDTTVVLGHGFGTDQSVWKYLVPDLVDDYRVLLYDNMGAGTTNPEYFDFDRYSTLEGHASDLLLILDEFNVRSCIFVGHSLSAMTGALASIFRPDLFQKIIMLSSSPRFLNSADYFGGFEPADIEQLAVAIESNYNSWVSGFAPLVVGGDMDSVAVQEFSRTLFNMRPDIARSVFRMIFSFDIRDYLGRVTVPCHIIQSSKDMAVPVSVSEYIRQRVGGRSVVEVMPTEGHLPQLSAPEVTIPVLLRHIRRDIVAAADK
Method: as §1, §2, §3, §4

HTL5 = biological target: T4, HTL5 (Striga hermonthica, UniProt A0A0M5I297)
T4 sequence (A0A0M5I297 1-271): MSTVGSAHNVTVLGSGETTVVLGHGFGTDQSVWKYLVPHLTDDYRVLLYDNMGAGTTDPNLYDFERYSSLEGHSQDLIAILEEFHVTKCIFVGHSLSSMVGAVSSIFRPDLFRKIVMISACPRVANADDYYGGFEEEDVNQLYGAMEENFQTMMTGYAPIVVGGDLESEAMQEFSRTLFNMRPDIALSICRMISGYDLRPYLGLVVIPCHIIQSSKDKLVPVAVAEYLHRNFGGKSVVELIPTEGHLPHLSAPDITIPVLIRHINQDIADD
Method: as §1, §2, §3, §4

HTL9 = biological target: T5, HTL9 (Striga hermonthica, UniProt A0A0M4AGW0)
T5 sequence (A0A0M4AGW0 1-271): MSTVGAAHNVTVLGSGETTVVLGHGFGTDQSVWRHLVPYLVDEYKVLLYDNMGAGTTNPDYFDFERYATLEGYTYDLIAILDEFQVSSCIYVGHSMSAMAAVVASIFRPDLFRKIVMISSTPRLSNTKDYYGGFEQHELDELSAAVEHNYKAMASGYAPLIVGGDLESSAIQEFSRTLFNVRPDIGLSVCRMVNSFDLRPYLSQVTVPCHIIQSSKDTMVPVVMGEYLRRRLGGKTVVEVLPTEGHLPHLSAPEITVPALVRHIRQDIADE
Method: as §1, §2, §3, §4

HTL7 = biological target: T6, HTL7 (Striga hermonthica, UniProt A0A0M3PNA2)
T6 sequence (A0A0M3PNA2 1-271): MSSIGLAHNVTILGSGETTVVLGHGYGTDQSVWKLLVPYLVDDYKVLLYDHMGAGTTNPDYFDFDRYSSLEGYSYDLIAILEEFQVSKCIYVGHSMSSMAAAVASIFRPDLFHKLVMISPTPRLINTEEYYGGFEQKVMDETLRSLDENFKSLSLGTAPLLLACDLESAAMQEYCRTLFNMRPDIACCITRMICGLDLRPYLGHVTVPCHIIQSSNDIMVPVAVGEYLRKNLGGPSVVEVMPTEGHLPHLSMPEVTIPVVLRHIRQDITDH
Method: as §1, §2, §3, §4

Row | SMILES | pIC50 (HTL11) | pIC50 (HTL10) | pIC50 (HTL2) | pIC50 (HTL5) | pIC50 (HTL9) | pIC50 (HTL7)
1 | CCCCOc1ccc(S(=O)(=O)N2CCN(C(=O)OC3C=C(C)C(=O)O3)CC2)cc1 (stereo not drawn) [Compound 1] | 5.74 | < 5.00 | < 5.00 | < 5.00 | < 5.00 | 6.51
2 | CC1=CC(OC=C2C(=O)OC3C4=C(CCCC4(C)C)CC23)OC1=O (stereo not drawn) [5-Ddeoxystriqol, 5-deoxystrigol, reference compound] | 5.80 | 6.21 | 5.05 | 5.44 | 5.92 | 6.92
3 | CC1=CC(OC(=O)NCc2ccccc2)OC1=O (stereo not drawn) [Comparison Compound 1, reference compound] | 6.18 | < 5.00 | < 5.00 | < 5.00 | < 5.00 | < 5.00
4 | CCCCOc1ccc(S(=O)(=O)N2CCN(C(=O)OC3C=CC(=O)O3)CC2)cc1 (stereo not drawn) [Compound 13] | < 5.00 | < 5.00 | < 5.00 | < 5.00 | < 5.00 | 6.12
